# From ChEMBL document CHEMBL1143337, “Novel boronated chlorin e6-based photosensitizers: synthesis, binding to albumin and antitumour efficacy” (Bioorg Med Chem, 2009)
# Tests used:
# [1] = Antitumor activity against rat M1 cells implanted in rat assessed as increase in tumor volume coefficient followed by light illumination at 25 mg/kg, ip after 14 days relative to control; format: functional; settings: route intraperitoneal
# [2] = Antitumor activity against rat M1 cells implanted in rat assessed as increase in tumor volume coefficient followed by light illumination at 25 mg/kg, ip after 21 days relative to control; format: functional; settings: route intraperitoneal
# [3] = Induction of necrosis in rat fibroblasts at 1 uM after 20 min post illumination to red light; format: cell-based; settings: fibroblast
# Albumin = Albumin (Homo sapiens, UniProt P02768); experiment: Binding affinity to human serum albumin; format: ADME; settings: isolated protein
# Albumin, sequence (P02768 whole entry): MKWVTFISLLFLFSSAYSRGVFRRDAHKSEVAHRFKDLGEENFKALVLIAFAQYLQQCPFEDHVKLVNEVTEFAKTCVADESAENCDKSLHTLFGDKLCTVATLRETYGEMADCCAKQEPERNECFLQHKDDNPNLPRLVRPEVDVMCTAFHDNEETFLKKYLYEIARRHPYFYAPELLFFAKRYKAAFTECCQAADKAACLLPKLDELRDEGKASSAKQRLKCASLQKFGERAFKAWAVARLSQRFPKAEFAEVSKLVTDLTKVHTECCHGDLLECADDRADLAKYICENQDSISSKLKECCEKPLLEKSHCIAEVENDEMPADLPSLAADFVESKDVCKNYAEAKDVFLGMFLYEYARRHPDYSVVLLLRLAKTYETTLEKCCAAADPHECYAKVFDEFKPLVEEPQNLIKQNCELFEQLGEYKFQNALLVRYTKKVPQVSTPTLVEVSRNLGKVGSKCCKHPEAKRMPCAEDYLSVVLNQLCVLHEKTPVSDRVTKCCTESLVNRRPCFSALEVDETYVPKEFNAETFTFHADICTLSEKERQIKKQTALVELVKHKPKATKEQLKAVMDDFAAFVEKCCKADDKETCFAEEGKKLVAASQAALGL
smiles,measurement,setting,value
C=Cc1c(C)c2cc3nc(c(CC(=O)OC)c4[nH]c(cc5nc(cc1[nH]2)C(C)=C5CC)c(C)c4C(=O)NCCN)[C@@H](CCC(=O)OC)C3C (some centres undefined),fold change (FC),[1],6.6
same,fold change (FC),[2],14.5
same,Activity,[3],Toxic
same,Kb,Albumin,2 ×10⁵ /M
